The record followed here is ChEMBL document CHEMBL2057166, “Discovery of novel hedgehog antagonists from cell-based screening: Isosteric modification of p38 bisamides as potent inhibitors of SMO” (Bioorg Med Chem Lett, 2012).

What all share (format): ADME, organism-based
Data set [1] can be described thus: Clearance in CD-1 mouse at 3 mg/kg, iv and 10 mg/kg, po. The note with it: in vivo.
Data set [2] is described as follows: Volume of distribution at steady state in CD-1 mouse at 3 mg/kg, iv and 10 mg/kg, po. The note with it: in vivo, read-out: Vdss.
A short description of data set [3]: AUC in CD-1 mouse at 10 mg/kg, po. The settings on record: plasma. On the set-up: dose 10 mg/kg, route oral.
A short description of data set [4]: Half life in CD-1 mouse at 3 mg/kg, iv. The arrangement: dose 3 mg/kg, route intravenous. The note with it: in vivo.
A short description of data set [5]: Oral bioavailability in CD-1 mouse at 10 mg/kg. The note with it: in vivo.

`Cc1ccc(-c2ncc(C)n2C)cc1NC(=O)c1ccc(OCc2ccccn2)cc1` displayed a clearance in data set [1] of 210 mL/min/kg. In data set [2], the Vd stood at 12 L/kg. The AUC in data set [3] came out at 100 ng·h/mL. For the same molecule, in data set [4], the half-life is 54 min. The molecule further showed a bioavailability in data set [5] of 22%.
As to `Cc1ccc(-c2ncc[nH]2)cc1NC(=O)c1ccc(OCc2ccccn2)cc1`, the clearance in data set [1] was 8.3 mL/min/kg. The Vd in data set [2] stood at 0.5 L/kg. Moreover, in data set [3], the AUC was 12500 ng·h/mL. In data set [4], this molecule gave a half-life of 60 min. The bioavailability in data set [5] came to 83%.

Broadly, the AUC is concentration integrated over time. The low end stands for less exposure, the high end for more exposure. As a reminder, the half-life is the time needed for the level to fall by half in the phase considered. Higher therefore signals slow decline. The bioavailability is the share of a dose that reaches the circulation, judged against a reference dose that is usually intravenous. Lower therefore signals poor availability.
